Results published in US9738634B2, “Heterocyclic amide compound and herbicide” (SYNGENTA PARTICIPATIONS AG, priority 2013, dated 2017).

Tests used:
Type in all cases: in vivo
barnyard grass [1] = test: Test Example 1: weedkilling efficacy, preemergent weed treatment in the submerged state; A: barnyard grass; conditions: treatment dosage 320 g/ha
In short: (§1)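 Visual scores against set criteria were taken 3 weeks after treatment. Compounds, as diluted emulsions at specified g/ha, went onto the water surface of 4 cm-flooded alluvial soil pots on the day weeds were sown and 2.5-leaf rice was transplanted; greenhouse held 25–30 °C.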

wild oat = test: Test Example 3: weedkilling efficacy through soil treatment; G: wild oat; conditions: soil treatment, treatment dosage 320 g/ha
In short: (§2)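 Crop and weed responses were judged three weeks after a uniform surface spray of the water-diluted emulsion at the given g/ha rate. Seeds sat beneath about 1.5 cm of sterilized diluvial soil, and boxes stood in a greenhouse at 25 to 30° C.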

Italian ryegrass = test: Test Example 3: weedkilling efficacy through soil treatment; I: Italian ryegrass; conditions: soil treatment, treatment dosage 320 g/ha
In short: as §2

crabgrass = test: Test Example 3: weedkilling efficacy through soil treatment; D: crabgrass; conditions: soil treatment, treatment dosage 320 g/ha
In short: as §2

rapeseed = test: Test Example 3: soil treatment, effect on crop; g: rapeseed; conditions: soil treatment, treatment dosage 320 g/ha
In short: as §2

fig-leafed goosefoot = test: Test Example 3: weedkilling efficacy through soil treatment; M: fig-leafed goosefoot; conditions: soil treatment, treatment dosage 320 g/ha
In short: as §2

barnyard grass [2] = test: Test Example 3: weedkilling efficacy through soil treatment; F: barnyard grass; conditions: soil treatment, treatment dosage 320 g/ha
In short: as §2

birds-eye speedwell = test: Test Example 3: weedkilling efficacy through soil treatment; p: birds-eye speedwell; conditions: soil treatment, treatment dosage 320 g/ha
In short: as §2

redroot pigweed = test: Test Example 3: weedkilling efficacy through soil treatment; L: redroot pigweed; conditions: soil treatment, treatment dosage 320 g/ha
In short: as §2

catchweed = test: Test Example 3: weedkilling efficacy through soil treatment; O: catchweed; conditions: soil treatment, treatment dosage 320 g/ha
In short: as §2

wheat = test: Test Example 3: soil treatment, effect on crop; e: wheat; conditions: soil treatment, treatment dosage 320 g/ha
In short: as §2

beet = test: Test Example 3: soil treatment, effect on crop; f: beet; conditions: soil treatment, treatment dosage 320 g/ha
In short: as §2

bulrush [3] = test: Test Example 1: weedkilling efficacy, preemergent weed treatment in the submerged state; B: bulrush; conditions: treatment dosage 320 g/ha
In short: as §1

oval-leafed pondweed [4] = test: Test Example 2: weedkilling efficacy, growth period weed treatment in the submerged state; C: oval-leafed pondweed; conditions: treatment dosage 320 g/ha
In short: (§3)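 Barnyard grass, bulrush and oval-leafed pondweed sown in alluvial soil under 4 cm flooding, greenhouse 25 to 30° C. At 1-2 leaf stage, water-diluted emulsion applied to the water surface at stated g/ha dosages; effects scored 3 weeks later.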

bulrush [5] = test: Test Example 2: weedkilling efficacy, growth period weed treatment in the submerged state; B: bulrush; conditions: treatment dosage 320 g/ha
In short: as §3

green foxtail = test: Test Example 3: weedkilling efficacy through soil treatment; E: green foxtail; conditions: soil treatment, treatment dosage 320 g/ha
In short: as §2

Indian mallow = test: Test Example 3: weedkilling efficacy through soil treatment; K: Indian mallow; conditions: soil treatment, treatment dosage 320 g/ha
In short: as §2

black-grass = test: Test Example 3: weedkilling efficacy through soil treatment; H: black-grass; conditions: soil treatment, treatment dosage 320 g/ha
In short: as §2

transplanted rice = test: Test Example 1: preemergent weed treatment in the submerged state, effect on crop; a: transplanted rice; conditions: treatment dosage 320 g/ha
In short: as §1

barnyard grass [6] = test: Test Example 2: weedkilling efficacy, growth period weed treatment in the submerged state; A: barnyard grass; conditions: treatment dosage 320 g/ha
In short: as §3

common wind-grass = test: Test Example 3: weedkilling efficacy through soil treatment; J: common wind-grass; conditions: soil treatment, treatment dosage 320 g/ha
In short: as §2

soybean = test: Test Example 3: soil treatment, effect on crop; d: soybean; conditions: soil treatment, treatment dosage 320 g/ha
In short: as §2

directly sown rice = test: Test Example 3: soil treatment, effect on crop; b: directly sown rice; conditions: soil treatment, treatment dosage 320 g/ha
In short: as §2

corn = test: Test Example 3: soil treatment, effect on crop; c: corn; conditions: soil treatment, treatment dosage 320 g/ha
In short: as §2

oval-leafed pondweed [7] = test: Test Example 1: weedkilling efficacy, preemergent weed treatment in the submerged state; C: oval-leafed pondweed; conditions: treatment dosage 320 g/ha
In short: as §1

chickweed = test: Test Example 3: weedkilling efficacy through soil treatment; N: chickweed; conditions: soil treatment, treatment dosage 320 g/ha
In short: as §2

| Compound | A: barnyard grass, weed kill grade (barnyard grass [1]) | G: wild oat, weedkilling efficacy grade (wild oat) | I: Italian ryegrass, weedkilling efficacy grade (Italian ryegrass) | D: crabgrass, weedkilling efficacy grade (crabgrass) | g: rapeseed, effect on crop grade (rapeseed) | M: fig-leafed goosefoot, weedkilling efficacy grade (fig-leafed goosefoot) | F: barnyard grass, weedkilling efficacy grade (barnyard grass [2]) | P: birds-eye speedwell, weedkilling efficacy grade (birds-eye speedwell) | L: redroot pigweed, weedkilling efficacy grade (redroot pigweed) | O: catchweed, weedkilling efficacy grade (catchweed) | e: wheat, effect on crop grade (wheat) | f: beet, effect on crop grade (beet) | B: bulrush, weed kill grade (bulrush [3]) | C (oval-leafed pondweed) weedkilling efficacy grade (oval-leafed pondweed [4]) | B (bulrush) weedkilling efficacy grade (bulrush [5]) | E: green foxtail, weedkilling efficacy grade (green foxtail) | K: Indian mallow, weedkilling efficacy grade (Indian mallow) | H: black-grass, weedkilling efficacy grade (black-grass) | a: transplanted rice, effect on crop grade (transplanted rice) | A (barnyard grass) weedkilling efficacy grade (barnyard grass [6]) | also measured |
| --- | --- | --- | --- | --- | --- | --- | --- | --- | --- | --- | --- | --- | --- | --- | --- | --- | --- | --- | --- | --- | --- |
| CCc1cc(F)nc(NC(=O)C(C)(C)N2COCN(c3ccccc3)C2=O)c1 [A-2-21] | 5 (weed kill ratio 90% or more, (practically complete withering)) | 5 (weed kill ratio 90% or more, (practically complete withering)) | 5 (weed kill ratio 90% or more, (practically complete withering)) | 5 (weed kill ratio 90% or more, (practically complete withering)) | 4 (weed kill ratio 70% or more, less than 90%) | 5 (weed kill ratio 90% or more, (practically complete withering)) | 5 (weed kill ratio 90% or more, (practically complete withering)) | 5 (weed kill ratio 90% or more, (practically complete withering)) | 4 (weed kill ratio 70% or more, less than 90%) | 4 (weed kill ratio 70% or more, less than 90%) | 1 (weed kill ratio 5% or more, less than 20%) | 0 (weed kill ratio 5% or less (practically no effect)) | 5 (weed kill ratio 90% or more, (practically complete withering)) | 5 (weed kill ratio 90% or more, (practically complete withering)) | 5 (weed kill ratio 90% or more, (practically complete withering)) | 5 (weed kill ratio 90% or more, (practically complete withering)) | 2 (weed kill ratio 20% or more, less than 40%) | 5 (weed kill ratio 90% or more, (practically complete withering)) | 5 (weed kill ratio 90% or more, (practically complete withering)) | 5 (weed kill ratio 90% or more, (practically complete withering)) | J: common wind-grass, weedkilling efficacy grade (common wind-grass): 5 (weed kill ratio 90% or more, (practically complete withering)); d: soybean, effect on crop grade (soybean): 3 (weed kill ratio 40% or more, less than 70%); b: directly sown rice, effect on crop grade (directly sown rice): 5 (weed kill ratio 90% or more, (practically complete withering)); c: corn, effect on crop grade (corn): 0 (weed kill ratio 5% or less (practically no effect)); C: oval-leafed pondweed, weed kill grade (oval-leafed pondweed [7]): 5 (weed kill ratio 90% or more, (practically complete withering)); N: chickweed, weedkilling efficacy grade (chickweed): 4 (weed kill ratio 70% or more, less than 90%) |
| COc1cc(F)nc(NC(=O)C(C)(C)N2COCN(c3ccccc3)C2=O)c1 [A-2-23] | 5 (weed kill ratio 90% or more, (practically complete withering)) | 4 (weed kill ratio 70% or more, less than 90%) | 5 (weed kill ratio 90% or more, (practically complete withering)) | 5 (weed kill ratio 90% or more, (practically complete withering)) | 4 (weed kill ratio 70% or more, less than 90%) | 4 (weed kill ratio 70% or more, less than 90%) | 5 (weed kill ratio 90% or more, (practically complete withering)) | 5 (weed kill ratio 90% or more, (practically complete withering)) | 0 (weed kill ratio 5% or less (practically no effect)) | 4 (weed kill ratio 70% or more, less than 90%) | 0 (weed kill ratio 5% or less (practically no effect)) | 3 (weed kill ratio 40% or more, less than 70%) | 5 (weed kill ratio 90% or more, (practically complete withering)) | 5 (weed kill ratio 90% or more, (practically complete withering)) | 5 (weed kill ratio 90% or more, (practically complete withering)) | 5 (weed kill ratio 90% or more, (practically complete withering)) | 0 (weed kill ratio 5% or less (practically no effect)) | 5 (weed kill ratio 90% or more, (practically complete withering)) | 3 (weed kill ratio 40% or more, less than 70%) | 5 (weed kill ratio 90% or more, (practically complete withering)) | J: common wind-grass, weedkilling efficacy grade (common wind-grass): 5 (weed kill ratio 90% or more, (practically complete withering)); d: soybean, effect on crop grade (soybean): 0 (weed kill ratio 5% or less (practically no effect)); b: directly sown rice, effect on crop grade (directly sown rice): 5 (weed kill ratio 90% or more, (practically complete withering)); c: corn, effect on crop grade (corn): 0 (weed kill ratio 5% or less (practically no effect)); C: oval-leafed pondweed, weed kill grade (oval-leafed pondweed [7]): 5 (weed kill ratio 90% or more, (practically complete withering)); N: chickweed, weedkilling efficacy grade (chickweed): 4 (weed kill ratio 70% or more, less than 90%) |
| CC(C)(C(=O)Nc1cc(C2CC2)cc(Cl)n1)N1COCN(c2ccccc2)C1=O [A-2-30] | 5 (weed kill ratio 90% or more, (practically complete withering)) | 4 (weed kill ratio 70% or more, less than 90%) | 5 (weed kill ratio 90% or more, (practically complete withering)) | 5 (weed kill ratio 90% or more, (practically complete withering)) | 4 (weed kill ratio 70% or more, less than 90%) | 3 (weed kill ratio 40% or more, less than 70%) | 5 (weed kill ratio 90% or more, (practically complete withering)) | 4 (weed kill ratio 70% or more, less than 90%) | 0 (weed kill ratio 5% or less (practically no effect)) | 0 (weed kill ratio 5% or less (practically no effect)) | 1 (weed kill ratio 5% or more, less than 20%) | 3 (weed kill ratio 40% or more, less than 70%) | 5 (weed kill ratio 90% or more, (practically complete withering)) | 5 (weed kill ratio 90% or more, (practically complete withering)) | 5 (weed kill ratio 90% or more, (practically complete withering)) | 5 (weed kill ratio 90% or more, (practically complete withering)) | 0 (weed kill ratio 5% or less (practically no effect)) | 5 (weed kill ratio 90% or more, (practically complete withering)) | 1 (weed kill ratio 5% or more, less than 20%) | 5 (weed kill ratio 90% or more, (practically complete withering)) | J: common wind-grass, weedkilling efficacy grade (common wind-grass): 5 (weed kill ratio 90% or more, (practically complete withering)); d: soybean, effect on crop grade (soybean): 0 (weed kill ratio 5% or less (practically no effect)); b: directly sown rice, effect on crop grade (directly sown rice): 3 (weed kill ratio 40% or more, less than 70%); c: corn, effect on crop grade (corn): 0 (weed kill ratio 5% or less (practically no effect)); C: oval-leafed pondweed, weed kill grade (oval-leafed pondweed [7]): 5 (weed kill ratio 90% or more, (practically complete withering)); N: chickweed, weedkilling efficacy grade (chickweed): 3 (weed kill ratio 40% or more, less than 70%) |
